Literature values in patent US20260373193A1, “CARCINOGENESIS REDUCTION WITH PENTAAZA MACROCYLIC RING COMPLEX” (GALERA LABS, LLC, priority 2023, published 2026).

Key:
[1] = test system: acute and sub-chronic radiation damage; platinum therapy kidney damage; details: mucositis, pulmonary pneumonitis and fibrosis, liver damage; cited from earlier work
radiation damage = details: adult mice; cited from earlier work
[2] = test system: radiation-induced oral mucositis; details: hamster; cited from earlier work
established tumors = details: cited from earlier work
[3] = test system: collagen-induced arthritis; details: rat collagen-induced arthritis; cited from earlier work
colon of rats = details: experimental colitis; cited from earlier work
inflammation = details: rat; cited from earlier work

Compound | overt acute and sub-chronic radiation damage; platinum therapy kidney damage [1] | radiation damage, lethal total body irradiation (radiation damage) | radiation-induced oral mucositis [2] | efficacy of radiation and other therapies (established tumors) | joint disease [3] | injury to the colon (colon of rats) | inflammation (inflammation)
[Cl-].[Cl-].[Mn+2].c1cc2nc(c1)CN[C@@H]1CCCC[C@H]1NCCN[C@@H]1CCCC[C@H]1NC2 [GC4403] | reduce overt acute and sub-chronic radiation damage | attenuate the radiation damage | attenuate the radiation damage | enhance the efficacy of radiation and other therapies | prevent joint disease | very significantly reduce the injury to the colon of rats | inhibit inflammation
CCC(=O)[O-].CCC(=O)[O-].[Mn+2].c1cc2nc(c1)CN[C@H]1CCCC[C@@H]1NCCN[C@H]1CCCC[C@@H]1NC2 [GC4711] | reduce overt acute and sub-chronic radiation damage | – | – | enhance the efficacy of radiation and other therapies | – | – | –
